Laboratory results reported in ChEMBL document CHEMBL4308841, “Synthesis, in vitro antiproliferative activity, and kinase inhibitory effects of pyrazole-containing diarylureas and diarylamides” (Eur J Med Chem, 2018).

Legend:
RXF 393 [1] = assay: Growth inhibition of human RXF393 cells incubated for 48 hrs by sulforhodamine B assay; format: functional, cell-based; details: RXF 393, 48 h
ACHN = assay: Growth inhibition of human ACHN cells assessed as cell growth at 100 uM incubated for 48 hrs by sulforhodamine B assay relative to control; format: functional; details: read-out: Activity
HCC 2998 = assay: Growth inhibition of human HCC2998 cells incubated for 48 hrs by sulforhodamine B assay; format: functional, cell-based; details: HCC 2998, 48 h
NCI-H322M = assay: Growth inhibition of human NCI-H322M cells assessed as cell growth at 0.1 uM incubated for 48 hrs by sulforhodamine B assay relative to control; format: functional; details: read-out: Activity
HL-60(TB) = assay: Growth inhibition of human HL-60(TB) cells incubated for 48 hrs by sulforhodamine B assay; format: functional, cell-based; details: HL-60, 48 h
RPMI-8226 = assay: Growth inhibition of human RPMI8226 cells assessed as cell growth at 0.1 uM incubated for 48 hrs by sulforhodamine B assay relative to control; format: functional; details: RPMI-8226, 48 h, read-out: Activity
Hs-578T = assay: Growth inhibition of human Hs578T cells assessed as cell growth at 1 uM incubated for 48 hrs by sulforhodamine B assay relative to control; format: functional; details: read-out: Activity
U-251 = assay: Growth inhibition of human U251 cells assessed as cell growth at 100 uM incubated for 48 hrs by sulforhodamine B assay relative to control; format: functional; details: U-251, 48 h, read-out: Activity
SK-MEL-2 = assay: Growth inhibition of human SK-MEL-2 cells assessed as cell growth at 0.1 uM incubated for 48 hrs by sulforhodamine B assay relative to control; format: functional; details: SK-MEL-2, 48 h, read-out: Activity
NCI-H226 = assay: Growth inhibition of human NCI-H226 cells assessed as cell growth at 100 uM incubated for 48 hrs by sulforhodamine B assay relative to control; format: functional; details: NCI-H226, 48 h, read-out: Activity
SF-539 = assay: Growth inhibition of human SF539 cells assessed as cell growth at 0.1 uM incubated for 48 hrs by sulforhodamine B assay relative to control; format: functional; details: SF-539, 48 h, read-out: Activity
BT-549 = assay: Growth inhibition of human BT549 cells assessed as cell growth at 100 uM incubated for 48 hrs by sulforhodamine B assay relative to control; format: functional; details: BT-549, 48 h, read-out: Activity
SN12C = assay: Growth inhibition of human SN12C cells assessed as cell growth at 0.01 uM incubated for 48 hrs by sulforhodamine B assay relative to control; format: functional; details: read-out: Activity
UO-31 = assay: Growth inhibition of human UO31 cells incubated for 48 hrs by sulforhodamine B assay; format: functional, cell-based; details: UO-31, 48 h
SNB-75 = assay: Growth inhibition of human SNB75 cells assessed as cell growth at 1 uM incubated for 48 hrs by sulforhodamine B assay relative to control; format: functional; details: SNB-75, 48 h, read-out: Activity
UACC-257 = assay: Growth inhibition of human UACC257 cells incubated for 48 hrs by sulforhodamine B assay; format: functional, cell-based; details: UACC-257, 48 h
HCT-116 = assay: Growth inhibition of human HCT116 cells assessed as cell growth at 0.1 uM incubated for 48 hrs by sulforhodamine B assay relative to control; format: functional; details: HCT-116, 48 h, read-out: Activity
NCI/ADR-RES = assay: Growth inhibition of human NCI/ADR-RES cells assessed as cell growth at 0.1 uM incubated for 48 hrs by sulforhodamine B assay relative to control; format: functional; details: read-out: Activity
T47D = assay: Growth inhibition of human T47D cells assessed as cell growth at 0.1 uM incubated for 48 hrs by sulforhodamine B assay relative to control; format: functional; details: read-out: Activity
SNB-19 [2] = assay: Growth inhibition of human SNB19 cells assessed as cell growth at 0.1 uM incubated for 48 hrs by sulforhodamine B assay relative to control; format: functional; details: SNB-19, 48 h, read-out: Activity
RXF 393 [3] = assay: Growth inhibition of human RXF393 cells assessed as cell growth at 0.1 uM incubated for 48 hrs by sulforhodamine B assay relative to control; format: functional; details: RXF 393, 48 h, read-out: Activity
SF-268 = assay: Growth inhibition of human SF268 cells assessed as cell growth at 100 uM incubated for 48 hrs by sulforhodamine B assay relative to control; format: functional; details: SF-268, 48 h, read-out: Activity
NCI-H522 = assay: Growth inhibition of human NCI-H522 cells assessed as cell growth at 0.1 uM incubated for 48 hrs by sulforhodamine B assay relative to control; format: functional; details: NCI-H522, 48 h, read-out: Activity
SK-OV-3 = assay: Growth inhibition of human SKOV3 cells assessed as cell growth at 0.1 uM incubated for 48 hrs by sulforhodamine B assay relative to control; format: functional; details: SK-OV-3, 48 h, read-out: Activity
CCRF-CEM = assay: Growth inhibition of human CCRF-CEM cells assessed as cell growth at 100 uM incubated for 48 hrs by sulforhodamine B assay relative to control; format: functional; details: read-out: Activity
SNB-19 [4] = assay: Growth inhibition of human SNB19 cells incubated for 48 hrs by sulforhodamine B assay; format: functional, cell-based; details: SNB-19, 48 h
UACC-62 = assay: Growth inhibition of human UACC62 cells assessed as cell growth at 0.01 uM incubated for 48 hrs by sulforhodamine B assay relative to control; format: functional; details: UACC-62, 48 h, read-out: Activity
A549 = assay: Growth inhibition of human A549/ATCC cells assessed as cell growth at 100 uM incubated for 48 hrs by sulforhodamine B assay relative to control; format: functional; details: A549, 48 h, read-out: Activity
KM12 = assay: Growth inhibition of human KM12 cells assessed as cell growth at 0.1 uM incubated for 48 hrs by sulforhodamine B assay relative to control; format: functional; details: KM12, 48 h, read-out: Activity
[5] = read-out: LC50 (the source's name)
[6] = read-out: pLC50 (the source's name) (converted)

COc1cc(Cl)cc(-c2nn(-c3cccc(NC(=O)Nc4cccc(C(F)(F)F)c4)c3)cc2-c2ccncc2)c1
LC50 (RXF 393 [1]): 36.3 µM
GI50 (RXF 393 [1]; read-out: GI50): 1.4 µM
TGI (RXF 393 [1]; read-out: TGI): 43.5 µM
GI50 (RXF 393 [1]; read-out: pGI50 (converted)): 1.41 µM
TGI (RXF 393 [1]; read-out: pTGI (converted)): 4.37 µM
growth at 100 µM (ACHN): -9%
GI50 (HCC 2998; read-out: GI50): 3.47 µM
CC50 (HCC 2998; [5]): 90.1 µM
TGI (HCC 2998; read-out: TGI): 14 µM
GI50 (HCC 2998; read-out: pGI50 (converted)): 3.47 µM
CC50 (HCC 2998; [6]): 89.1 µM
TGI (HCC 2998; read-out: pTGI (converted)): 14.1 µM
growth at 0.1 µM (NCI-H322M): 94%
GI50 (HL-60(TB); read-out: GI50): 1.91 µM
LC50 (HL-60(TB); read-out: LC50): > 100 µM
TGI (HL-60(TB); read-out: TGI): 55.1 µM
GI50 (HL-60(TB); read-out: pGI50 (converted)): 1.91 µM
LC50 (HL-60(TB); read-out: pLC50 (converted)): > 100 µM
TGI (HL-60(TB); read-out: pTGI (converted)): 5.5 µM
growth at 0.1 µM (RPMI-8226): 98%
growth at 1 µM (Hs-578T): 90%
growth at 100 µM (U-251): -100%
growth at 0.1 µM (SK-MEL-2): 55%
growth at 100 µM (NCI-H226): -22%
growth at 0.1 µM (SF-539): 93%
growth at 100 µM (BT-549): -48%
growth at 0.01 µM (SN12C): 101%
IC50 (UO-31): 1.03 µM
GI50 (UO-31; read-out: GI50): 1.03 µM
CC50 (UO-31; [5]): > 100 µM
TGI (UO-31; read-out: TGI): 77.5 µM
GI50 (UO-31; read-out: pGI50 (converted)): 1.02 µM
CC50 (UO-31; [6]): > 100 µM
TGI (UO-31; read-out: pTGI (converted)): 7.76 µM
growth at 1 µM (SNB-75): 68%
GI50 (UACC-257; read-out: GI50): 1.75 µM
CC50 (UACC-257; [5]): 21.5 µM
TGI (UACC-257; read-out: TGI): 45.5 µM
GI50 (UACC-257; read-out: pGI50 (converted)): 1.74 µM
CC50 (UACC-257; [6]): 21.4 µM
TGI (UACC-257; read-out: pTGI (converted)): 4.68 µM
growth at 0.1 µM (HCT-116): 99%
growth at 0.1 µM (NCI/ADR-RES): 98%
growth at 0.1 µM (T47D): 94%
growth at 0.1 µM (SNB-19 [2]): 96%
growth at 0.1 µM (RXF 393 [3]): 92%
growth at 100 µM (SF-268): -28%
growth at 0.1 µM (NCI-H522): 53%
growth at 0.1 µM (SK-OV-3): 98%
growth at 100 µM (CCRF-CEM): -18%
GI50 (SNB-19 [4]; read-out: GI50): 2.77 µM
CC50 (SNB-19 [4]; [5]): > 100 µM
TGI (SNB-19 [4]; read-out: TGI): 35.9 µM
GI50 (SNB-19 [4]; read-out: pGI50 (converted)): 2.75 µM
CC50 (SNB-19 [4]; [6]): > 100 µM
TGI (SNB-19 [4]; read-out: pTGI (converted)): 35.5 µM
growth at 0.01 µM (UACC-62): 96%
growth at 100 µM (A549): -24%
growth at 0.1 µM (KM12): 95%

COc1cc(Cl)cc(-c2nn(-c3cccc(NC(=O)Nc4cc(C(F)(F)F)cc(C(F)(F)F)c4)c3)cc2-c2ccncc2)c1
IC50 (RXF 393 [1]): 1.26 µM
LC50 (RXF 393 [1]): 14.8 µM
TGI (RXF 393 [1]; read-out: TGI): 3.92 µM
GI50 (RXF 393 [1]; read-out: pGI50 (converted)): 1.26 µM
TGI (RXF 393 [1]; read-out: pTGI (converted)): 3.89 µM
growth at 100 µM (ACHN): -38%
IC50 (HCC 2998): 0.62 µM
GI50 (HCC 2998; read-out: GI50): 0.622 µM
TGI (HCC 2998; read-out: TGI): 4.95 µM
GI50 (HCC 2998; read-out: pGI50 (converted)): 0.617 µM
CC50 (HCC 2998; [6]): 42.7 µM
TGI (HCC 2998; read-out: pTGI (converted)): 5.01 µM
growth at 0.1 µM (NCI-H322M): 95%
IC50 (HL-60(TB)): 0.33 µM
GI50 (HL-60(TB); read-out: GI50): 0.37 µM
LC50 (HL-60(TB); read-out: LC50): > 100 µM
TGI (HL-60(TB); read-out: TGI): 3.24 µM
GI50 (HL-60(TB); read-out: pGI50 (converted)): 0.324 µM
LC50 (HL-60(TB); read-out: pLC50 (converted)): > 100 µM
TGI (HL-60(TB); read-out: pTGI (converted)): 3.24 µM
growth at 0.1 µM (RPMI-8226): 87%
growth at 1 µM (Hs-578T): 50%
growth at 100 µM (U-251): -92%
growth at 0.1 µM (SK-MEL-2): 95%
growth at 100 µM (NCI-H226): -47%
growth at 0.1 µM (SF-539): 102%
growth at 100 µM (BT-549): -80%
growth at 0.01 µM (SN12C): 96%
IC50 (UO-31): 0.26 µM
GI50 (UO-31; read-out: GI50): 0.254 µM
CC50 (UO-31; [5]): 0.0597 µM
TGI (UO-31; read-out: TGI): 1.58 µM
GI50 (UO-31; read-out: pGI50 (converted)): 0.263 µM
CC50 (UO-31; [6]): 6.92 µM
TGI (UO-31; read-out: pTGI (converted)): 1.58 µM
growth at 1 µM (SNB-75): 48%
IC50 (UACC-257): 0.41 µM
GI50 (UACC-257; read-out: GI50): 0.412 µM
CC50 (UACC-257; [5]): 0.07 µM
TGI (UACC-257; read-out: TGI): 1.84 µM
GI50 (UACC-257; read-out: pGI50 (converted)): 0.407 µM
CC50 (UACC-257; [6]): 7.08 µM
TGI (UACC-257; read-out: pTGI (converted)): 1.86 µM
growth at 0.1 µM (HCT-116): 97%
growth at 0.1 µM (NCI/ADR-RES): 95%
growth at 0.1 µM (T47D): 96%
growth at 0.1 µM (SNB-19 [2]): 87%
growth at 0.1 µM (RXF 393 [3]): 101%
growth at 100 µM (SF-268): -88%
growth at 0.1 µM (NCI-H522): 80%
growth at 0.1 µM (SK-OV-3): 105%
growth at 100 µM (CCRF-CEM): -29%
IC50 (SNB-19 [4]): 0.42 µM
GI50 (SNB-19 [4]; read-out: GI50): 0.42 µM
CC50 (SNB-19 [4]; [5]): > 100 µM
TGI (SNB-19 [4]; read-out: TGI): 11.3 µM
GI50 (SNB-19 [4]; read-out: pGI50 (converted)): 0.417 µM
CC50 (SNB-19 [4]; [6]): > 100 µM
TGI (SNB-19 [4]; read-out: pTGI (converted)): 11.2 µM
growth at 0.01 µM (UACC-62): 96%
growth at 100 µM (A549): -68%
growth at 0.1 µM (KM12): 98%
